Here are results for 19 compounds from ChEMBL document CHEMBL4007493 (J Med Chem, 2017).

Assay [1] addresses T1, D(2) dopamine receptor (Homo sapiens, UniProt P14416). Briefly: Antagonist activity at human dopamine D2 receptor expressed in HEK293 cells assessed as reduction in quinpirole-mediated cAMP inhibition preincubated for 15 mins followed by quinpirole addition measured for 1 sec by BRET assay relative to quinpirole. It is filed as functional, cell-based.
Assay [2] addresses T1, D(2) dopamine receptor. Briefly: Antagonist activity at renilla luciferase-tagged human dopamine D2 receptor expressed in HEK293 cells coexpressing mVenus-fused beta-arrestin 2 assessed as reduction in quinpirole-mediated beta-arrestin 2 recruitment preincubated for 15 mins followed by quinpirole addition measured for 1 sec by BRET assay relative to quinpirole. Format: cell-based.

Assay [3] addresses T1, D(2) dopamine receptor. Briefly: Antagonist activity at human dopamine D2 receptor expressed in forskolin stimulated-HEK293 cells coexpressing renilla luciferase-fused Galphai1/GFP10-fused Ggamma2 assessed as inhibition of quinpirole-induced Galphai1 activation by BRET assay relative to quinpirole. Format: cell-based.
In assay [4] the target is T1, D(2) dopamine receptor. Briefly: Antagonist activity at human dopamine D2 receptor expressed in HEK293 cells coexpressing renilla luciferase-fused GalphaoA/GFP10-fused Ggamma2 assessed as inhibition of quinpirole-induced GalphaoA activation by BRET assay relative to quinpirole. It is filed as cell-based.
Assay [5] deals with T1, D(2) dopamine receptor.
Assay [6] addresses T1, D(2) dopamine receptor. The source holds these as a separate data set.
Assay [7] has as its target T1, D(2) dopamine receptor. This is another data set of the same source.
Assay [8] addresses T1, D(2) dopamine receptor. The source holds these as a separate data set.
In assay [9] the target is T1, D(2) dopamine receptor. This is another data set of the same source.
Assay [10] has as its target T1, D(2) dopamine receptor. This is another data set of the same source.
Assay [11] concerns the target T1, D(2) dopamine receptor. Briefly: biochemical.
The target in assay [12] is T2, D(3) dopamine receptor (Homo sapiens, UniProt P35462). Briefly: biochemical.
Assay [13] concerns the target T1, D(2) dopamine receptor. This is another data set of the same source.
Assay [14] concerns the target T2, D(3) dopamine receptor.

T1 sequence (P14416 whole entry, the tested form may be a part): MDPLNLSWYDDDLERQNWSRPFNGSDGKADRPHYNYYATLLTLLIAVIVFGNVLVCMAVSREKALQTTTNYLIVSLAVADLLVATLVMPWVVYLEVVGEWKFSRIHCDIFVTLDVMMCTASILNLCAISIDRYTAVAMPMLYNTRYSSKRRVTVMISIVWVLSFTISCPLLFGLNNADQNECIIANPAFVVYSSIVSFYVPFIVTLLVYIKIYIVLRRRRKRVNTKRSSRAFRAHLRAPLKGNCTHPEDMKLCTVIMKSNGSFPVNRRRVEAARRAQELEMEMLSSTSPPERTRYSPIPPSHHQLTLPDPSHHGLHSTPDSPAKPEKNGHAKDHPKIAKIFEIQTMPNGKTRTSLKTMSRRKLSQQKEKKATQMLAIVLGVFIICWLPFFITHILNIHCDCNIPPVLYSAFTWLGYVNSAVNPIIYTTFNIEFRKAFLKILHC
T2 sequence (P35462 whole entry): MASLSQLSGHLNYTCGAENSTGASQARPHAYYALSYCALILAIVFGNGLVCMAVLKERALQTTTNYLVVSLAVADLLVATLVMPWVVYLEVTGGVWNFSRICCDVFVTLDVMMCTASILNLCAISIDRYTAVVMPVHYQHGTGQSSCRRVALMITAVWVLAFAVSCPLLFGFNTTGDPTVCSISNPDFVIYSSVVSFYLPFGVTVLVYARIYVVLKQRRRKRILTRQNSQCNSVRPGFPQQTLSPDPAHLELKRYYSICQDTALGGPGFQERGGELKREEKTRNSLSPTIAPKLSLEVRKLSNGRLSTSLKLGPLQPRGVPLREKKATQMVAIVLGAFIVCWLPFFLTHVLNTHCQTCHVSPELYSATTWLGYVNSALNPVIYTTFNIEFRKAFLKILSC

Consider `CCCN(CCCCNC(=O)c1cc2ccccc2[nH]1)[C@@H]1Cc2cccc3c2n(c(=O)n3CCC)C1`, for which the Imax in assay [1] is -10 to 0%; in [2], -28%; in assay [3], -31%; in assay [4], -40%. The EC50 turned out to be 338 nM in assay [5], 944 nM in [6], 1150 nM in [7] and 458 nM in assay [9]. The IC50 in [8] came out at 2970 nM; in [10] it was 4530 nM.

For `CN[C@@H]1Cc2cccc3c2n(c(=O)n3CCCCCCCCCCCCOCCCCc2ccccc2)C1`, the values for the Ki in assay [11] and in assay [12] were 124 nM and 141 nM, respectively.

Consider `CN[C@@H]1Cc2cccc3c2n(c(=O)n3CCCCOCCCCc2ccccc2)C1`, for which the Ki in assay [11] came out at 121 nM; in assay [12], 377 nM.

In the case of `CN[C@@H]1Cc2cccc3c2n(c(=O)n3CCCCCCCCOCCCCc2ccccc2)C1`, the Imax was -10 to 0% in assay [1], -10 to 0% in assay [2], -59% in assay [3] and -67% in assay [4]. The figures for the Ki in assay [11] and in [12] were 38.7 nM and 77.7 nM, respectively.

Consider `CN[C@@H]1Cc2cccc3c2n(c(=O)n3CCOCCOCCCCc2ccccc2)C1`, for which the figures for the Imax in assay [2], in assay [3] and in [4] were -13%, -87% and -36%, respectively. Besides, the EC50 in assay [5] turned out to be 1230 nM; in assay [6], 2470 nM; in [7], 1850 nM; in [9], 351 nM. The results for the Ki in assay [11] and in [12] were 111 nM and 227 nM, respectively.

For `CN[C@@H]1Cc2cccc3c2n(c(=O)n3CCOCCOCCOCCCCc2ccccc2)C1`, the Imax in assay [1] is -10 to 0%; in [2], -47%; in [3] it was -72%; in [4], -83%. Moreover, the EC50 worked out at 279 nM in assay [5], 139 nM in [6], 678 nM in assay [7] and 88.7 nM in assay [9]. In addition, the Ki is 34.7 nM in [11] and 558 nM in [12].

On to `CN[C@@H]1Cc2cccc3c2n(c(=O)n3CCCCCCCCCCOCCCCc2ccccc2)C1`, for which the Imax in assay [1] is -10 to 0%; in assay [2], -10 to 0%; in assay [3], -80%; in [4], -33%. Also, the EC50 was 710 nM in assay [5] and 2530 nM in assay [6]. For the same compound, the IC50 in [8] worked out at 4490 nM; in assay [10], 802 nM. The Ki in assay [11] stood at 23.8 nM; in assay [12] it was 113 nM.

Take `CCCN(CCC)[C@@H]1Cc2cccc3c2n(c(=O)n3CCC)C1`: the Imax is -23% in assay [2], -45% in assay [3] and -24% in assay [4]. Also, the EC50 in [5] was 1 nM; in assay [6] it was 20.5 nM; in assay [7], 16.8 nM; in [9], 0.9 nM. The IC50 in [13] worked out at 158 nM; in assay [8], 931 nM; in assay [10], 98.9 nM.

Take `CN[C@@H]1Cc2cccc3c2n(c(=O)n3CCCCCCOCCCCc2ccccc2)C1`: the Ki in assay [11] turned out to be 60.6 nM; in assay [12], 139 nM.

As for `CN[C@@H]1Cc2cccc3c2n(c(=O)n3CCCCCCCCCCCCOc2ccc3c(c2)NC(=O)CC3)C1`, the Imax in assay [1] is -10 to 0%; in assay [2], -13%; in [3], -141%; in assay [4] it was -71%. The EC50 in assay [5] worked out at 1460 nM; in [7], 570 nM; in assay [9], 667 nM. For the same compound, the Ki in assay [11] stood at 284 nM; in assay [12] it was 598 nM.

`CN(CCCCOc1ccc2c(c1)NC(=O)CC2)[C@@H]1Cc2cccc3[nH]c(=O)n(c23)C1`: the EC50 in assay [5] was 3.1 nM; in [6], 74 nM; in assay [7] it was 189 nM; in [9], 158 nM. Also, the values for the Ki in [11] and in [12] were 40.1 nM and 382 nM, respectively.

Take `CCCN[C@@H]1Cc2cccc3c2n(c(=O)n3CCCCOCCCCc2ccccc2)C1`: the EC50 in [5] is 25.6 nM; in assay [6], 197 nM; in assay [7] it was 194 nM; in assay [9], 24.6 nM. Moreover, the Ki in [11] is 37.2 nM; in [12], 94.2 nM.

In turn, `CN[C@@H]1Cc2cccc3[nH]c(=O)n(c23)C1` [SUMANIROLE] gave a Ki in assay [14] of 573 nM. In other words, the sub-micromolar range.

For `CCCn1c(=O)n2c3c(cccc31)C[C@@H](N(C)CCCCNC(=O)c1cc3ccccc3[nH]1)C2`, the Ki in assay [11] stood at 21.8 nM; in [12], 2.45 nM.

On to `CCCN[C@@H]1Cc2cccc3c2n(c(=O)n3CCCCCCOCCCCc2ccccc2)C1`, for which the Ki in [11] is 54.8 nM; in assay [12], 80.6 nM.

Take `CCCN(CCC)[C@@H]1Cc2cccc3c2n(c(=O)n3CCCCNC(=O)c2cc3ccccc3[nH]2)C1`: the Imax was -10 to 0% in assay [1], -41% in [2], -64% in assay [3] and -27% in [4]. In addition, the EC50 in [5] worked out at 53.8 nM; in assay [6], 270 nM; in assay [7], 185 nM; in [9], 56.9 nM. Besides, the values for the IC50 in assay [13], in assay [8] and in assay [10] were 713 nM, 3650 nM and 2010 nM, respectively.

With `CCCN[C@@H]1Cc2cccc3c2n(c(=O)n3CCCCNC(=O)c2cc3ccccc3[nH]2)C1`, the Ki was found to be 18.5 nM in [11] and 115 nM in assay [12].

`CN[C@@H]1Cc2cccc3c2n(c(=O)n3CCCCOc2ccc3c(c2)NC(=O)CC3)C1`: the Imax in assay [1] is -10 to 0%; in [2], -27%; in assay [3], -34%; in [4], -64%. Further, the EC50 came out at 255 nM in assay [5], 1500 nM in assay [6], 713 nM in assay [7] and 105 nM in assay [9]. The same compound displayed a half-maximal inhibitory concentration (IC50) in assay [8] of 4100 nM. The values for the Ki in [11] and in assay [12] were 338 nM and 1350 nM, respectively.

Regarding `CN[C@@H]1Cc2cccc3c2n(c(=O)n3CCOCCOCCOCCOc2ccc3c(c2)NC(=O)CC3)C1`, the Imax in assay [1] is -10 to 0%; in assay [2] it was -67%; in assay [3], -66%; in assay [4], -18%. In addition, the EC50 in assay [5] worked out at 1000 nM; in [6], 1870 nM; in assay [7], 3980 nM; in assay [9], 1060 nM. Moreover, the Ki turned out to be 306 nM in assay [11] and 640 nM in assay [12].
